Literature values as cited in US20250179000A1 (Sanford Burnham Prebys Medical Discovery Institute, priority 2021, published 2025).

Experiments:
[1] = system: cultured spinal cord astrocytes; conditions: wild-type and mGlu2 knockout mice, not mGlu3 knockout; cited from earlier work
R6/2 mice = conditions: cited from earlier work
[2] = system: GDNF mRNA and protein levels in the mouse brain; conditions: cited from earlier work
[3] = system: 6-OHDA lesioned nigrostriatal tract; conditions: cited from earlier work
reserpine-treated rat = conditions: cited from earlier work
spinal cord GDNF levels = conditions: cited from earlier work
SOD1G93A mice = conditions: cited from earlier work
[4] = system: nigro-striatal damage induced by 1-methyl-4-phenyl-1,2,3,6-tetrahydropyridine in mice; conditions: acute or repeated 0.25 or 3 mg/kg i.p.; tyrosine hydroxylase-positive neuron count; cited from earlier work
SMI-32+ motor neurons = conditions: abrogated by anti-GDNF antibodies; cited from earlier work
cocaine craving = conditions: preliminary results in humans; cited from earlier work
cocaine-seeking in rats = conditions: systemic injections; cited from earlier work

Compound	GDNF levels in astrocytes [1]	striatal neuron loss (R6/2 mice; 20 mg/kg daily s.c., at 10 weeks)	motor function (R6/2 mice; 20 mg/kg daily s.c., distance traveled, speed, pauses, straight-line locomotion)	phenotype in R6/2 mice (R6/2 mice; 20 mg/kg daily subcutaneous, beginning at 4 weeks)	GDNF mRNA and protein levels ([2]; 0.25-3 mg/kg i.p.)	time of peak GDNF mRNA levels ([2]; after injection)	protection against nigral infusion of 6-OHDA ([3]; 10 mg/kg/day ip, 7 days)	protection against striatal infusion of 6-OHDA ([3]; 10 mg/kg/day ip, 21 days, striatum)	rotational behaviour ([3]; systemic 0.1, 1, 10 mg/kg ip, 1 month after unilateral 6-OHDA lesion)	locomotor activity (reserpine-treated rat; intracerebroventricular 1, 5, 10, 20 nmol, reserpine 5 mg/kg ip)	reserpine-induced akinesia (reserpine-treated rat; systemic 0.1, 1, 10 mg/kg ip)	tolerance to GDNF-enhancing effect (spinal cord GDNF levels; 28 days s.c. osmotic minipumps, 0.5-5 mg/day)	spinal cord GDNF levels (spinal cord GDNF levels; acute 0.5, 1 or 5 mg/kg i.p., wild-type and mGlu2 knockout mice, not mGlu3 knockout)	expression of glutamate transporter GLT-1 in spinal cord (spinal cord GDNF levels; continuous infusion)	neurological disability (SOD1G93A mice; continuous treatment 1 or 5 mg/kg/day)	spinal cord motor neurons (SMI-32+ cell count) (SOD1G93A mice; day 40 of treatment)	protection against nigro-striatal damage [4]	protection of motor neurons against excitotoxic death (SMI-32+ motor neurons)	cocaine craving (cocaine craving)	reinstatement of cocaine-seeking (cocaine-seeking in rats)
N[C@@]1(C(=O)O)CO[C@H]2[C@H](C(=O)O)[C@H]21 [LY379268]	enhanced GDNF levels	rescue of a 15-20% striatal neuron loss	normalization of motor function	dramatically improves the phenotype	increased	3 h	some protection	significant protection in the striatum	failed to effect rotational behaviour	dose-dependent increase in locomotor activity	did not reverse reserpine-induced akinesia	No tolerance developed	enhanced spinal cord GDNF levels	enhanced the expression	beneficial effect on neurological disability	rescued spinal cordmotor neurons	highly protective	protected	–	–
CC(=O)N[C@@H](CS)C(=O)O [N-acetylcysteine]	–	–	–	–	–	–	–	–	–	–	–	–	–	–	–	–	–	–	attenuated cocaine craving	attenuated
